Here are results for one molecule from patent publication US20070123580A1, “Combination of histone deacetylase inhibitors with chemotherapeutic agents” (priority 2003, published 2007).

The test system of data set [1] is A549 lung carcinoma xenograft. Kind of data set: A549 lung carcinoma xenograft model. The note with it: single daily intravenous doses 10 to 100 mg/kg. It is filed as in vivo.
The next data set concerns p21 promoter. As to the kind of experiment: Transcriptional activation of the p21 promoter. The data set is classed as cell-based. The note with it: single agent; sub-micromolar concentrations.
A further data set relates to tumor cell lines. Kind of data set: MTS monolayer proliferation assay, combination with 5-azacytidine (cell line not stated). The note with it: in combination with 5-azacytidine. The data set is classed as cell-based. From the text: (§1) MTS (which is 3-(4,5 Dimethylthiazol-2-yl)-5-(3-carboxyphenyl)-2-(4-sulfophenyl)-2H-tetrazolium, inner salt) assays are used to assess the antiproliferative effects of the drug combinations. The HCT116 and MDA-MB-435P tumor cell lines, previously characterized as sensitive to HDA inhibitors, are chosen for these experiments along with clinically relevant chemotherapeutic drugs. A commercial program, “CalcuSyn”, is employed to determine whether the combined effects are synergistic, antagonistic or additive.
(§2) Two cell lines, the HCT116 human colon carcinoma cells and MDA-MB-435P, a hormone independent breast carcinoma cell line, are chosen based on their sensitivity to HDAI. Chemotherapeutic agents are paired with the cell lines based on their clinical relevance. The compounds tested in combination with N-hydroxy-3-[4-[[(2-hydroxyethyl)[2-(1H-indol-3-yl)ethyl]-amino]methyl]phenyl]-2E-2-propenamide include adriamycin which is clinically used in the treatment of breast cancer, 5-fluoruracil (5-FU), and camptothecin, used clinically for colon cancer. Due to the reported cross-talk between histone deacetylases and DNA methyl transferases, 5-azacytidine, a DNA methyltransferase inhibitor, is also tested.
Experiments are done using five-point or six-point drug titrations in 96-well tissue culture plates, with the top row left empty. HCT116 and MDA-MB-435P cells are suspended in complete media at a density of 3.6×10^3 and 2.1×10^4 cell/ml, respectively, and 190 μl are added per well. Complete medium (200 μl) is added to the top row. […] The plate is incubated at 37° C. for 4 hours and the OD is measured on a Molecular Devices Thermomax at 490 nm using the Softmax program. […]
(§3) The plates are incubated at 37° C. for 72 hours from seeding. The MTS solution is added (as for the T0 plate) and read four hours later. […]
Using the CalcuSyn program, the Combination Index (CI) is determined by the isobologram equation CI=(D)1/(Dx)1+(D)2/(Dx)2. […] For each compound the % growth values at each dose as determined in the MTS assay is used. […]
In general terms: Tetrazolium dyes change colour on reduction, which living cells bring about.

A further data set concerns MDA-MB-435P cells. As to the kind of experiment: MTS monolayer proliferation assay, drug combinations analysed with CalcuSyn. It is filed as cell-based, human. The note with it: in combination with adriamycin.
Description: as §1, §2
Human breast carcinoma cells, MDA-MB-435P are cultured as previously described in the reference above. Cell proliferation is measured using an adaptation of published procedures essentially as described, in Zhang R D, Fidler I J, Price J E, “Relative malignant potential of human breast carcinoma cell lines established from pleural effusions and a brain metastasis”, Invasion-Metastasis 1991; 11 :204-15.
Experiments are done using five-point or six-point drug titrations in 96-well tissue culture plates, with the top row left empty. HCT116 and MDA-MB-435P cells are suspended in complete media at a density of 3.6×10^3 and 2.1×10^4 cell/ml, respectively, and 190 μl are added per well. Complete medium (200 μl) is added to the top row. 24 hours later, after the cells have attached to the bottom of the plate, 10 μl of MTS solution are added to one of the plates to determine the activity at the time of compound addition (T0). The plate is incubated at 37° C. for 4 hours and the OD is measured on a Molecular Devices Thermomax at 490 nm using the Softmax program. The T0 plate serves as a reference for initial activity at the beginning of the experiment. Compound addition begins 24 hours after seeding, the same time as the T0 determination. […] One cell line is tested with four compounds or combinations per plate. 10 microliters of each of the six dilutions are added in triplicate and complete medium is added to the bottom row. The compounds are added to the plates singly or in combination with N-hydroxy-3-[4-[[(2-hydroxyethyl)[2-(1H-indol-3-yl)ethyl]-amino]methyl]phenyl]-2E-2-propenamide. In pretreated combinations, the drugs are added simultaneously, 24 hr prior, or 24 hr after N-hydroxy-3-[4-[[(2-hydroxyethyl)[2-(1H-indol-3-yl)ethyl]-amino]methyl]phenyl]-2E-2-propenamide. As controls for pretreatment, new dilutions are added to untreated cells singly or in combination 48 hours after seeding.
The plates are incubated at 37° C. for 72 hours from seeding. The MTS solution is added (as for the T0 plate) and read four hours later. In order to analyze the data, the average value of media alone (background) is subtracted from each experimental well and the triplicate values are averaged for each compound dilution. The following formulas are used to calculate percent growth.
The “% Growth” is plotted against compound concentration and used to calculate IC50s employing the user-defined spline function in Microsoft Excel. This function uses linear regression between data points to predict the concentration of compounds at 50% inhibition. IC50s are used to determine the dose range for each compound and the resultant combinations.
(§4) Using the CalcuSyn program, the Combination Index (CI) is determined by the isobologram equation CI=(D)1/(Dx)1+(D)2/(Dx)2. […]

In data set [2] the test system is HCT116 cells. Described as above. It is filed as cell-based, human.
Description: as §1
Two cell lines, the HCT116 human colon carcinoma cells and MDA-MB-435P, a hormone independent breast carcinoma cell line, are chosen based on their sensitivity to HDAI. Chemotherapeutic agents are paired with the cell lines based on their clinical relevance. […]
Experiments are done using five-point or six-point drug titrations in 96-well tissue culture plates, with the top row left empty. […] The plate is incubated at 37° C. for 4 hours and the OD is measured on a Molecular Devices Thermomax at 490 nm using the Softmax program. […]
as §3, §4

For data set [3], the system named is HCT116 colon carcinoma xenograft. Kind of data set: HCT116 colon carcinoma xenograft model. It is filed as in vivo, athymic mice. The note with it: single daily intravenous doses 10 to 100 mg/kg.
The subject of data set [4] is MDA-M B-435P breast carcinoma xenograft. As to the kind of experiment: MDA-MB-435P breast carcinoma xenograft model. The data set is classed as in vivo. The note with it: MDA-MB-435P breast xenograft; single daily intravenous doses 10 to 100 mg/kg.
In data set [5] the test system is histone acetylation (intracellular HDA). As to the kind of experiment: Histone acetylation in cells treated in culture. It is filed as cell-based, human.
In a further data set the test system is cell growth. Kind of data set: Inhibition of cell growth in vitro. It is filed as cell-based. The note with it: single agent.
In data set [6] the test system is acetylated histone H3 and H4. As to the kind of experiment: Acetylated histone levels in HCT116 human tumor xenografts. The conditions noted are these: in vivo, HCT116 human tumor xenografts from athymic mice. An excerpt: The compound also increases acetylated histone H3 and H4 levels in vivo, in HCT116 human tumor xenografts from athymic mice. In this example, the effects of combining N-hydroxy-3-[4-[[(2-hydroxyethyl)[2-(1H-indol-3-yl)ethyl]-amino]methyl]phenyl]-2E-2-propenamide with standard therapeutics or with other experimental drugs on monolayer proliferation of tumor cell lines are investigated.
A general note: In xenograft studies the graft and the host belong to different species.

Data set [7] deals with HCT116 cells. Kind of data set: Apoptosis in HCT116 cells. It is filed as cell-based, human. The note with it: single agent, sub micromolar levels, 48 to 72 hours of exposure.
Data set [8] concerns normal dermal fibroblasts. Kind of data set: Effect on normal dermal fibroblasts. It is filed as cell-based. The conditions noted are these: single agent; compared with HCT116 cells.
The mark [9] stands for this setting: HDAI added 24 hr prior to adriamycin.
Setting [10] is: adriamycin added 24 hr prior to HDAI.

“Also recorded” adds a separate entry of the source. Where only a bound is given, the exact number is not on record here.

For the molecule `O=C(/C=C/c1ccc(CN(CCO)CCc2c[nH]c3ccccc23)cc1)NO` [N-hydroxy-3-[4-[[(2-hydroxyethyl)[2-(1H-indol-3-yl)ethyl]-amino]methyl]phenyl]-2E-2-propenamide], the tumor growth entry in data set [1], in data set [3] and in data set [4] was “reproducibly inhibits tumor growth” throughout. The p21 promoter activation entry with p21 promoter is recorded as “transcriptionally activates the p21 promoter”. Moreover, the combined antiproliferative effect result in the data set on tumor cell lines (all drug addition schedules) is listed as “mainly additive effects; also recorded: concentration-dependent effects”; in the data set with tumor cell lines (high inhibitory concentrations (IC50)) it was “additive effects”; with tumor cell lines (low inhibitory concentrations (IC25)), “antagonistic effects”. For the same molecule, the results for the combination index in the data set with MDA-MB-435P cells (setting [9]), in the data set with MDA-MB-435P cells (setting [10]) and in the data set on MDA-MB-435P cells (simultaneous addition) were ~1, < 0.1 and ~1, respectively. The “combined antiproliferative effect (isobologram / combination index)” value in the data set on MDA-MB-435P cells (setting [9]) is “additive effects”; with MDA-MB-435P cells (setting [10]), “synergistic effects; also recorded: strong synergy; also recorded: very strong synergy”; with MDA-MB-435P cells (simultaneous addition) it was “additive effects”; in the data set with HCT116 cells [2] (in combination with 5-FU) it was “mainly additive effects; also recorded: additive or weak antagonistic effects”. Moreover, the “combined antiproliferative effect (combination index)” value with HCT116 cells [2] (in combination with camptothecin) is reported as “mainly additive effects; also recorded: additive or weak antagonism; also recorded: additive or weak antagonistic effects”. Also, in [5] (HCT116 cells treated in culture continuously for 3 to 24 hr), the “levels of histone acetylation” value was “Increased levels of histone acetylation”. Further, in data set [5] (single agent, sub-micromolar concentrations, cells not given), the histone acetylation result was “increases histone acetylation”. For the same molecule, the “concentration inhibiting cell growth” value in the data set on cell growth was “sub-micromolar concentrations”. Also, the “acetylated histone H3 levels” value in data set [6] is given as “increases”. Besides, in data set [6], the “acetylated histone H4 levels” value was “increases”. Besides, the apoptosis entry in the data set with HCT116 cells [7] is recorded as “produces apoptosis”. Further, the “cellular response of normal dermal fibroblasts” value in data set [8] was “predominantly undergo cell-cycle arrest”. For the same molecule, the “reduction of viability of normal dermal fibroblasts” value in data set [8] is “much higher concentrations and longer times of exposure are required”.
